Laboratory results reported in patent US6989396B2, “Tropane alkaloid multidrug resistance inhibitors from Erythroxylum pervillei and use of the same” (The Board of Trustees of the University of Illinois, priority 2001, dated 2006).
“And” between values parts separate entries of the source, which are not always exact repeats. Identical values can stand only once. Like-named read-outs stand apart in the source and are kept apart here. Marks after values point to notes of the source that are not given here.

Legend:
KB-V1 cells = assay: Reversal of MDR, cell survival assay: KB-V1 with or without vinblastine; format: cell-based, human; details: for IC50: Homo sapiens, KB-V1, 72 hours
Procedure: One part of a natural product drug discovery program involves monitoring the potential of plant extracts to reverse multiple drug resistance. […] To investigate the potential of plant extracts or compounds to reverse multidrug-resistance, KB-V1 cells are treated with different concentrations of plant extracts or compounds in the presence (1 μg/ml) or absence of vinblastine.
Cytotoxic potential. The cytotoxic potential of test substances with KB-3, KB-V1 and KB-8-5 cells was determined as described previously (24). Briefly, various concentrations of test compounds (dissolved in 10 μl of 10% DMSO) were transferred to 96-well plates, and 190 μl aliquots of cell suspensions (5×10^4 cells/ml) were added to each well. The plates then were incubated for 72 hours at 37° C. (100% humidity with a 5% CO2 atmosphere in air), and 100 μl of cold 20% aqueous trichloroacetic acid were added to the growth medium in each well to fix the cells. The cultures were incubated at 4° C. for 30 minutes, washed, air-dried, stained with sulforhodamine B solution, and washed with 1% acetic acid. […] In each case, a zero-day control was performed by adding an equivalent number of cells to several wells and incubating at 37° C. for 30 minutes, and processing as described above. Optical density values obtained with the zero-day control were subtracted, and cell survival, relative to control (solvent-treated) cultures, was calculated. The cytotoxic potential of the compounds with CEM and CEM/VLB100 cells was determined as described by Beck et al. (30). Cells were grown in 24-well plates at a density of 5–6×10^5 cells/ml. At 48 hours, the cell number was determined using a Coulter Counter, with a channelizer to distinguish cells from debris.

BC1, breast cancer = assay: In vitro cytotoxicity, human tumor panel: BC1; format: cell-based; details: Homo sapiens, read-out: ED50 BCI
Procedure: (§1) Cytotoxicity assay. Compounds 1–9 were evaluated for cytotoxic activity against a panel of human cancer cell lines, including KB-V1 in the presence and absence of VLB, according to an established protocol (68).

[1] = system: SW626, human ovarian adenocarcinoma; assay: In vitro cytotoxicity, human tumor panel: SW626; format: cell-based; details: SW626, read-out: ED50 SW626
Procedure: as §1

[2] = target: T1, Pgp (KB-V1 cell membrane vesicles) (Homo sapiens, UniProt P08183); assay: [3H]Vinblastine accumulation with KB-V1 cell membrane vesicles; format: binding
T1 construct: Cell membrane vesicles were prepared from KB-V1 cells following literature procedures; endogenous in cells; host or cells: KB-V1 cells (vinblastine-selected multidrug-resistant KB line); plasma membrane vesicles
Procedure: [^3H]Vinblastine accumulation with KB-V1 vesicles. Cell membrane vesicles were prepared from KB-V1 cells following literature procedures (31, 32) with some modifications. Medium was removed from KB-V1 cells in log growth phase (about 80% confluence) and the cells were rinsed with ice-cold PBS followed by ice-cold PBS containing 2 mM EDTA. Aprotinin (1 mg/ml) was then added, and, after a 10 minutes incubation at room temperature, the cells were harvested by gentle aspiration with a serological pipette and collected by centrifugation (100×g for 5 minutes). The cells were suspended in 0.25 M sucrose buffer (0.01 M Tris-HCl, pH 7.5, containing 0.25 M sucrose, 0.2 mM CaCl2, 1 mM EDTA) and homogenized with a Polytron at 2,500 rpm for 30 seconds. […] The homogenate then was diluted with four volumes of 0.025 M sucrose solution (0.01 M Tris-HCl, pH 7.5, containing 0.025 M sucrose) and centrifuged (1,000×g for 10 minutes). […] The interface (about 5 ml) was collected and diluted with four volumes of 0.25 M sucrose, 0.01 M Tris-HCl, pH 7.5, and centrifuged at 100,000×g for 1 hour. The resulting vesicle pellet was suspended in PBS containing 1 mM phenylmethylsulfonyl fluoride, using a 25-gauge needle, and stored at −80° C. Protein content was determined using a bicinchoninic acid protein assay kit with BSA as a standard (33).
Vinblastine accumulation with membrane vesicles assays were performed in 96-well plates as described previously (23, 24). […] Various concentrations of test samples, dissolved in 5 μl of DMSO, were then added (final volume, 100 μl), and incubations were conducted at ambient temperature for 20 minutes. For kinetic studies, various concentrations of [^3H]vinblastine were used. Reactions were terminated by aspirating the contents of each well onto a glass filter filter (printed type A filtermats, Wallac) using a 96-well harvester (Harvester 96, Tomtec). […] Nonspecific binding was determined by performing similar incubations with reaction mixtures containing a 1,000-fold excess of unlabeled vinblastine. Nonspecific binding was subtracted from all total-binding data to yield specific binding.

[3] = vinblastine 1 μg/ml, listed as pervilleine A

T1 sequence (P08183 whole entry): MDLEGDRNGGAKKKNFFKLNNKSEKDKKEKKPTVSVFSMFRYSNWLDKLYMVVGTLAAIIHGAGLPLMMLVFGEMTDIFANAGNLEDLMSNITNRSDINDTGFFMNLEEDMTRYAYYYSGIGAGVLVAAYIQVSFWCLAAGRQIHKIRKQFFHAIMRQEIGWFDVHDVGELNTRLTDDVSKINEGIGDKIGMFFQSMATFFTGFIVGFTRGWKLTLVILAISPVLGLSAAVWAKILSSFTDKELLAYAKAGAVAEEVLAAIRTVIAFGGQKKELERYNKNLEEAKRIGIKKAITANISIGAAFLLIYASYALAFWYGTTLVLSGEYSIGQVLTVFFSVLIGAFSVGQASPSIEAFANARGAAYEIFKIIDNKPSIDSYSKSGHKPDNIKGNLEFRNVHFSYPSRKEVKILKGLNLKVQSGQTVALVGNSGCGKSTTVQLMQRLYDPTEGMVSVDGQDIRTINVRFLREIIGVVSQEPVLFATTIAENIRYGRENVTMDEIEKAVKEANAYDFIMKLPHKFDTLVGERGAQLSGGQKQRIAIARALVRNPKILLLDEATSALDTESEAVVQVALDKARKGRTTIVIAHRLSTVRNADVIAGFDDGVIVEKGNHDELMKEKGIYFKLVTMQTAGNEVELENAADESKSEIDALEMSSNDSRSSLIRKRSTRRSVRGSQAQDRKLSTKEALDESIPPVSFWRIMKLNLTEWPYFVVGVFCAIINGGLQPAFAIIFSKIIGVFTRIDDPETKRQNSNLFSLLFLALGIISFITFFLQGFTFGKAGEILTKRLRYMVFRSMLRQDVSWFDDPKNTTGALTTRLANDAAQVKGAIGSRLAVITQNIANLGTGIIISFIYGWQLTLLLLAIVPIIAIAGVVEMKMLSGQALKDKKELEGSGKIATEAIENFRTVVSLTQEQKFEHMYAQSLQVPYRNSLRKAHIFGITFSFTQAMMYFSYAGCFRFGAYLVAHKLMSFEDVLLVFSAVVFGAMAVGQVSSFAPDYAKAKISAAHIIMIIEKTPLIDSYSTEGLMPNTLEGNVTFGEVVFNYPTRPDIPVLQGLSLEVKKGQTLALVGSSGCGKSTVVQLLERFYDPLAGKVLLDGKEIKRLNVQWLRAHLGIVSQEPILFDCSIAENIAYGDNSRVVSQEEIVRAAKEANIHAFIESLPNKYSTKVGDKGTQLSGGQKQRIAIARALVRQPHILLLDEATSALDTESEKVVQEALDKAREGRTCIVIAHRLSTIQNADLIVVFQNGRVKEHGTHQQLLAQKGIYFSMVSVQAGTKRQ

`COc1cc(C=CC(=O)O[C@H]2[C@@H](O)[C@@H]3C[C@H](OC(=O)c4cc(OC)c(OC)c(OC)c4)C[C@H]2N3C)cc(OC)c1OC` [Compound 3, 3α-(3,4,5-trimethoxybenzoyloxy)-6β-(3,4,5-trimethoxycinnamoyloxy)-7β-hydroxytropane] was tested, and the IC50 (KB-V1 cells; absence of vinblastine, read-out: IC50 KB-V1 (−)) was over 34 µM, the IC50 (KB-V1 cells; presence of vinblastine (1 μg/ml), read-out: IC50 KB-V1 (+)) was 0.36 µM and the “Ratio of IC50 values KB-3/[KB-V1 (+)]” value (KB-V1 cells; vinblastine 1 μg/ml, listed as Pervilleine A) was 66.6^d. For the same molecule, the “Ratio of IC50 values KB-3/[KB-V1 (+)]” value (KB-V1 cells; [3]) was 66.6, the “Ratio of IC50 values [KB-V1 (−)]/[KB-V1 (+)]” value (KB-V1 cells; [3]) was over 95 and the IC50 (BC1, breast cancer) was over 20 µg/mL. The IC50 [1] was over 20 µg/mL, the “fold reduction of [3H]vinblastine accumulation” value ([2]; 0–100 μM, 0.16 μM [3H]vinblastine) was “about 65 fold” and the IC50 ([2]; 0.16 μM [3H]vinblastine, 0.5 mM ATP, 20 minutes, ambient temperature) was 3.84 µM. For the same molecule, the Ki ([2]; double-reciprocal plots, 0.015–0.16 μM [3H]vinblastine, read-out: Ki, competitive with respect to vinblastine binding) was ~7.3 µM and 7.3 µM and the “mode of inhibition of vinblastine accumulation” value ([2]; kinetic analysis, double-reciprocal plots) was “competitive inhibition”.
